According to PMC6570502 (Chembiochem : a European journal of chemical biology, 2019):

Columns and labels:
[1] = biological target: 2KG-dependent enzymes; conditions: broad-spectrum inhibitors of 2KG-dependent enzymes; cited from earlier work
[2] = biological target: T1, KDM4A N198G mutant (Homo sapiens, UniProt O75164, N198G); experiment: MALDI demethylase assay, H3K9me3 substrate peptide, N198G mutant; type: biochemical
T1 sequence (O75164 1-1064 N198G): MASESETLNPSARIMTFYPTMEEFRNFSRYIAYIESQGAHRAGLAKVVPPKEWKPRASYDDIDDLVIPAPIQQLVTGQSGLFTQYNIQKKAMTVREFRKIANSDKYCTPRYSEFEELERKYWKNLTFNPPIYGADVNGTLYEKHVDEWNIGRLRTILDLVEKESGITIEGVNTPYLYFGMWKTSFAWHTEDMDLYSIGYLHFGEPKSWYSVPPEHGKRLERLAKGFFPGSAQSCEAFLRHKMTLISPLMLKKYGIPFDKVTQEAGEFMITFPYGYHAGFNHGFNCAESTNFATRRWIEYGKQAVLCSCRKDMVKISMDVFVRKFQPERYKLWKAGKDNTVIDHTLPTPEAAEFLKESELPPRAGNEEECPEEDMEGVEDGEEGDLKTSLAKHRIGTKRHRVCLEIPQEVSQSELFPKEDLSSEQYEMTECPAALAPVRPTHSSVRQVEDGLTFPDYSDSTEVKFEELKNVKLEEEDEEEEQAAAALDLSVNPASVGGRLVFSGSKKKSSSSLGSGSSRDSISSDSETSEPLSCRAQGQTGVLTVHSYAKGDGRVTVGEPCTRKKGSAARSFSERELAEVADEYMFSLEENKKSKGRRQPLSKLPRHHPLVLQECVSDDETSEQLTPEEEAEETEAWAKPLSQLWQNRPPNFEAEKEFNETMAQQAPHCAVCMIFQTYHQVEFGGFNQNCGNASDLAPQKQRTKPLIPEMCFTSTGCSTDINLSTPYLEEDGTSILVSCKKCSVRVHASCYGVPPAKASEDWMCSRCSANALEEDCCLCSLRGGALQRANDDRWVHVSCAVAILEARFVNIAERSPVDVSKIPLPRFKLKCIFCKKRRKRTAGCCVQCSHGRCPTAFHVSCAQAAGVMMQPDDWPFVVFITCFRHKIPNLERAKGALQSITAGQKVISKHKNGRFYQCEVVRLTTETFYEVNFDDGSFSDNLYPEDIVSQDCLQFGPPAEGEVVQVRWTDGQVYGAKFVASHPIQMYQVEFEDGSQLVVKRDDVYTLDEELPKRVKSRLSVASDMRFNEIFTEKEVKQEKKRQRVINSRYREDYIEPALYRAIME

[3] = scaffold test under the optimized assay conditions (50 μM 2KG), Figure S7

Row | SMILES | IC50 [1] | inhibition of demethylase activity ([2]; 100 μM compound, 50 μM 2KG, MALDI-MS) | inhibition of demethylase activity [2, 3]
1 | O=C(O)CNC(=O)C(=O)O [compound 2, N-oxalylglycine] | micromolar range | significantly inhibited | inhibited
2 | O=C(O)c1ccc(O)c2ncccc12 [IOX1, 5-carboxy-8-hydroxyquinone] | micromolar range |  | inhibited
